Laboratory results as given in the supplement of paper PMC10307832.

Tests used:
Test in all cases: relative viability (nuclei count vs DMSO), 5 days (fraction); higher = more cells survive
[1] = compound: C=CCn1c(=O)c2cnc(Nc3ccc(N4CCN(C)CC4)cc3)nc2n1-c1cccc(C(C)(C)O)n1 [Adavosertib] + N=C(N)NC(=N)NCCc1ccccc1 [Phenformin] (partner 250 µM)
Outline: (§1)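 Relative viability is defined as nuclei in treated wells over nuclei in vehicle wells. Duplicate plates were run and medians reported. Lung cancer cell lines in 1536-well plates were dosed by pin tool one day after seeding, with one drug or with a fixed anchor-drug dose plus five library-drug doses (not always all listed) in √10 steps, and nuclei were counted after 5 days.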

[2] = compound: COc1nc(N)nc2c1ncn2[C@@H]1O[C@H](CO)[C@@H](O)[C@@H]1O [Nelarabine] + CC1(C)CCC(c2ccc(Cl)cc2)=C(CN2CCN(c3ccc(C(=O)NS(=O)(=O)c4ccc(N[C@H](CCN5CCOCC5)CSc5ccccc5)c(S(=O)(=O)C(F)(F)F)c4)cc3)CC2)C1 [Navitoclax] (partner 0.5 µM)
Outline: as §1

[3] = compound: C=CCn1c(=O)c2cnc(Nc3ccc(N4CCN(C)CC4)cc3)nc2n1-c1cccc(C(C)(C)O)n1 [Adavosertib] + Nc1ncn([C@H]2C[C@H](O)[C@@H](CO)O2)c(=O)n1 [Decitabine] (partner 2 µM)
Outline: as §1

[4] = compound: C=CCn1c(=O)c2cnc(Nc3ccc(N4CCN(C)CC4)cc3)nc2n1-c1cccc(C(C)(C)O)n1 [Adavosertib] + CC(=O)Nc1cccc(-n2c(=O)n(C3CC3)c(=O)c3c(Nc4ccc(I)cc4F)n(C)c(=O)c(C)c32)c1 [Trametinib] (partner 0.02 µM)
Outline: as §1

Cell Line	relative viability ([1]; first compound 0.01 µM)	relative viability ([1]; first compound 0.03162 µM)	relative viability ([1]; first compound 0.1 µM)	relative viability ([1]; first compound 0.3162 µM)	relative viability ([2]; first compound 0.01 µM)	relative viability ([2]; first compound 0.03162 µM)	relative viability ([2]; first compound 0.1 µM)	relative viability ([2]; first compound 0.3162 µM)	relative viability ([2]; first compound 1 µM)	relative viability ([3]; first compound 0.01 µM)	relative viability ([3]; first compound 0.03162 µM)	relative viability ([3]; first compound 0.1 µM)	relative viability ([3]; first compound 0.3162 µM)	relative viability ([4]; first compound 0.01 µM)	relative viability ([4]; first compound 0.03162 µM)	relative viability ([4]; first compound 0.1 µM)	relative viability ([4]; first compound 0.3162 µM)
NCI-H1623	0.553	0.629	0.563	0.652	–	–	–	–	–	–	–	–	–	–	–	–	–
HARA	0.513	0.476	0.548	0.361	1.17	1.08	1.07	1.22	1.06	0.486	0.554	0.473	0.423	0.696	0.729	0.75	0.611
NCI-H2126	0.525	0.538	0.531	0.568	0.869	0.748	0.786	0.816	0.743	0.518	0.596	0.512	0.568	0.571	0.528	0.619	0.619
NCI-H1703	–	–	–	–	1.28	0.936	1.24	1.18	1.18	–	–	–	–	–	–	–	–
UMC-11	0.341	0.315	0.318	0.29	0.291	0.277	0.307	0.306	0.313	0.646	0.606	0.608	0.654	0.74	0.633	0.743	0.615
PC-14	0.508	0.619	0.671	0.291	1.09	1.11	1.05	1.05	1.03	0.249	0.226	0.259	0.101	0.704	0.808	0.862	0.683
NCI-H1792	0.27	0.217	–	0.259	0.518	–	0.931	0.685	0.396	0.507	0.596	0.645	0.669	0.378	0.505	0.448	0.42
NCI-H1651	0.3	0.354	0.31	0.237	1.48	1.1	1.1	1.04	1.08	0.578	0.681	0.603	0.525	0.841	0.85	0.864	0.871
HCC-15	0.474	0.471	0.494	0.504	0.794	0.633	0.686	0.724	0.705	0.714	0.719	0.667	0.858	0.399	0.402	0.377	0.379
NCI-H2170	0.444	0.404	0.407	0.441	0.564	0.627	0.65	0.678	0.552	0.426	0.452	0.5	0.429	0.946	0.972	0.831	0.745
SW 1573	0.384	0.564	0.408	0.324	1.14	1.26	1.02	0.98	1.03	0.503	0.535	0.663	0.291	0.525	0.564	0.605	0.638
NCI-H661	0.28	0.264	0.276	0.252	–	–	–	–	–	0.595	0.577	0.489	0.4	0.686	0.621	0.68	0.486
PC-3 [JPC-3]	0.458	0.46	0.498	0.488	1.04	0.732	0.748	0.913	0.926	–	0.906	0.926	0.78	–	0.667	0.761	0.746
NCI-H358	0.288	0.295	0.322	0.24	–	–	–	–	–	0.246	0.201	0.188	0.193	0.132	0.124	0.124	0.124
COR-L23	0.433	0.465	0.442	0.267	1.4	1.14	1.09	1.04	0.977	0.45	0.523	0.45	0.277	0.622	0.577	0.565	0.251
IA-LM	–	–	–	–	1	0.626	0.774	0.754	0.807	–	–	–	–	–	–	–	–
ABC-1	0.228	0.237	0.208	0.222	–	–	–	–	–	1.28	1.04	1.17	0.959	–	–	–	–
RERF-LC-KJ	0.363	0.381	0.4	0.439	0.859	1.12	0.901	1.08	0.783	0.669	0.718	0.775	0.714	0.782	0.853	0.851	0.929
NCI-H1563	0.692	0.603	0.667	0.642	–	–	–	–	–	–	–	–	–	–	–	–	–
A-427	0.337	0.289	0.297	0.255	1.05	1.02	0.916	0.897	0.912	0.53	0.554	0.55	0.469	0.771	0.808	0.805	0.565
